What was measured:
Aβ1-42 peptide = Aβ1-42 peptide (Homo sapiens, UniProt P05067); assay: Thioflavin T (ThT) fluorescence assay of Aβ1-42 aggregation (SensoLyte kit); format: biochemical; details: Aβ1-42 35 μM, minimum of five concentrations, read-out: IC50, inhibition of Aβ aggregation (anti-amyloidogenic activity)
Method: All newly synthesized compounds were screened for their anti-amyloidogenic activity on Aβ1-42 peptides, using Phenol Red as the internal standard—all at 100 μM. […] To obtain the IC50 values (shown in FIGS. 4A-4D), all compounds were tested at a minimum of five different concentrations.
Samples of ThT (final concentration of 200 μM) and Aβ1-42 peptide (final concentration of 35 μM) were incubated at 37° C. in a black clear bottom 96-well plate. The ThT fluorescence intensity of each sample was immediately measured every 5 min for 120 min, with 440/485 nm excitation/emission filters and with 15 sec shaking between reads to facilitate aggregation. An inhibitor control containing Aβ1-42 and a supplied aggregation inhibitor (Phenol Red), at a final concentration of 100 μM. The positive control contained Aβ1-42 without an inhibitor. […] All the wells were brought to 100 μL as a final volume.

[1] = system: Drosophila melanogaster UAS-Aβ 1-42/nSyb-Gal4; assay: Forced climbing assay in transgenic flies overexpressing Aβ; format: in vivo
Description: To produce the transgenic Drosophila line of interest, UAS-Aβ42 1-42 female virgins were crossed with nSyb-Gal4 males. UAS-Aβ42 1-42 has a TM3, Sb balancer on the third chromosome, resulting in the mutant Sb gene, indicative of stubble bristles as a dominant marker. When crossed with the driver line, such as nSyb-Gal4, the transgenic line will either be UAS-Aβ42 1-42/nSyb-Gal4 or nSyb-Gal4/TM3, Sb. […] All offspring with the inherited balanced nSyb-Gal4TM3, Sb were negatively selected. Once enough F1 progeny of the transgenic line of interest were available, testing of the compounds was carried out. The extended chalcones of interest were dissolved in DMSO to a concentration of 5 mg/mL. […] These three concentrations were then introduced to each respective group. […] A forced climbing assay was conducted on the transgenic flies exposed to the extended chalcone compounds. […] The climbing assay was conducted five times a day, beginning on the seventh day after the flies were exposed to the compounds. Vials were marked with top, middle, and bottom sections, separated by one inch.

Aβ42 = assay: Human Aβ42 ELISA on heads of treated transgenic flies; format: in vivo; details: any concentration fed (1, 10, 100 mcg/mL)
Method: To perform the ELISA, the samples were first thawed on ice. A protease inhibitor cocktail with AEBSF (a serine protease inhibitor) was added to each sample, with a final concentration of 1 mM, and were then centrifuged to remove the large particulate matter. After centrifugation, samples were diluted with Standard Diluent Buffer at a 1:50 ratio to ensure sample concentrations would be within the range of the standard curve. […] After 30 min, the solution was thoroughly aspirated, and the wells were washed four times with Ix Wash Buffer. Stabilizing Chromogen (100 mcL) was added to each well and the plate was incubated in the dark. After 30 min, 100 mcL of the Stop Solution was added to every well and the plate was read immediately at an absorbance of 450 nm.
Absorbance measurements for each sample and control were averaged, and from the calibration curve the corresponding level of AB was determined. Data were analyzed using a one-way ANOVA. […] Thus, the physiological benefit observed when the flies were fed either Compound 25, 33, or 34 at varying concentrations, was most likely a result of a decrease in brain plaque burden.

SH-SY5Y cells = assay: MTT cell viability assay (neurotoxicity and neuroprotection); details: 48 h; for decrease in cell viability, compound co-administered with Aβ42: compound at IC50 concentration + Aβ42 20 μM, Aβ42 alone […]%; for cytotoxicity / neurotoxicity of compound alone: compound at its IC50 concentration
Method: To test neurotoxicity and neuroprotective effects of the compounds, a 3-(4,5-dimethylthiazol-2-yl)-2,5-diphenyltetrazolium bromide (MTT) assay was performed using compounds 25, 33, and 34 as described [8].
SH-SY5Y cells (CRL-2266, ATCC, Manassas, VA) were maintained in SH-SY5Y cells (CRL-2266, ATCC, Manassas, VA, USA) were maintained in Dulbecco's Modified Eagle's Medium and Ham's F-12 Medium (DMEM: F12) supplemented with 50 mL fetal bovine serum (10%) and incubated at 37° C., 5% CO2, and 90% humidity. For the MTT assay, cells were sub-cultured using trypsin-ethylenediaminetetraacetic acid (EDTA) (0.25%) solution into clear 96-well plates and allowed to adhere for 24 h. […] All groups were incubated for 48 h.
The MTT assay (Ab211091, Abcam, Waltham, MA, USA) was used to measure cell viability with metabolically active cells reducing the MTT reagent into insoluble formazan. Following the removal of the treatment media, 50 μL of serum-free media and 50 riL of MTT Reagent was added to each well. The plate was then incubated at 37° C. for 3 h. After incubation, 150 μL of MTT Solvent was added into each well. The plate was then wrapped in foil and placed on an orbital plate shaker for 15 min. The absorbance was read at 590 nm.

[2] = 1 mcg/mL fly food, control 4.33%
[3] = 1 mcg/mL fly food, control approximately 95%

Aβ1-42 peptide, sequence (P05067 672-713 limits assumed): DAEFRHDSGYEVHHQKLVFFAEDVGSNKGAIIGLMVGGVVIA

| Compound | IC50 (Aβ1-42 peptide) [µM] | percentage of flies in middle section after 10 s [1, 2] [%] | percentage of flies in bottom section after 10 s [1, 3] [%] | percentage climbing compared to control, bottom, 95% CI ([1]; 1 mcg/mL, FIG. 8) | percentage climbing compared to control, middle, 95% CI ([1]; 1 mcg/mL, FIG. 8) | percentage of flies in bottom section after 10 s ([1]; 10 mcg/mL fly food) [%] | percentage of flies in middle section after 10 s ([1]; 10 mcg/mL fly food) [%] | percentage climbing compared to control, middle, 95% CI ([1]; 10 mcg/mL, FIG. 8) | change in levels of Aβ in fly heads (ELISA) (Aβ42) | decrease in cell viability, compound co-administered with Aβ42 (SH-SY5Y cells) [%] | cytotoxicity / neurotoxicity of compound alone (SH-SY5Y cells) | further results |
| --- | --- | --- | --- | --- | --- | --- | --- | --- | --- | --- | --- | --- |
| (2E,4E)-1-(4-chlorophenyl)-5-(4-(piperidin-1-yl)phenyl)penta-2,4-dien-1-one [Compound 34] | 0.62 |  |  |  |  | 82.50 | 15.00 | −18.78-−2.558 | no statistically significant change | 60 | no cytotoxicity | percentage of flies in bottom section after 10 s ([1]; 100 mcg/mL fly food): 81.26%; percentage of flies in middle section after 10 s ([1]; 100 mcg/mL fly food): 14.90%; percentage climbing compared to control, bottom, 95% CI ([1]; 100 mcg/mL, FIG. 8): 3.395-24.75; percentage climbing compared to control, middle, 95% CI ([1]; 100 mcg/mL, FIG. 8): −18.67-−2.463 |
| COc1ccc(C(=O)/C=C/C=C/c2ccc(N(C)C)cc2)cc1 [Compound 15, (2E,4E)-5-(4-(dimethylamino)phenyl)-1-(4-methoxyphenyl)penta-2,4-dien-1-one] | 3.2 |  |  |  |  |  |  |  |  |  |  |  |
| CN(C)c1ccc(C=CC=CC(=O)c2ccc(Cl)cc2)cc1 [Compound 3] | 2.4 |  |  |  |  |  |  |  |  |  |  |  |

Now from value to compound, other results behind:

| IC50 (Aβ1-42 peptide) [µM] | Compound | percentage of flies in middle section after 10 s [1, 2] [%] | percentage of flies in bottom section after 10 s [1, 3] [%] | percentage climbing compared to control, bottom, 95% CI ([1]; 1 mcg/mL, FIG. 8) | percentage climbing compared to control, middle, 95% CI ([1]; 1 mcg/mL, FIG. 8) | percentage of flies in bottom section after 10 s ([1]; 10 mcg/mL fly food) [%] | percentage of flies in middle section after 10 s ([1]; 10 mcg/mL fly food) [%] | percentage climbing compared to control, middle, 95% CI ([1]; 10 mcg/mL, FIG. 8) | change in levels of Aβ in fly heads (ELISA) (Aβ42) | decrease in cell viability, compound co-administered with Aβ42 (SH-SY5Y cells) [%] | cytotoxicity / neurotoxicity of compound alone (SH-SY5Y cells) | further results |
| --- | --- | --- | --- | --- | --- | --- | --- | --- | --- | --- | --- | --- |
| 1.1 | O=C(/C=C/C=C/c1ccc(N2CCCCC2)cc1)c1ccc(Cl)cc1 [Compound 33, (2E,4E)-1-(4-chlorophenyl)-5-(4-(piperidin-1-yl)phenyl)penta-2,4-dien-1-one] | 26.00 | 66.00 | 18.63-40.04 | −29.70-−13.63 | 74.00 | 22.33 | −26.04-−9.964 | no statistically significant change | 52 | no cytotoxicity | percentage of flies in top section after 10 s ([1]; 1 mcg/mL fly food, control 0.33%): 8.00%; percentage climbing compared to control, top, 95% CI ([1]; 1 mcg/mL, FIG. 8): −12.8-−2.516; percentage climbing compared to control, bottom, 95% CI ([1]; 10 mcg/mL, FIG. 8): 10.63-32.04 |
| 0.91 | CN(C)c1ccc(/C=C/C=C/C(=O)c2cc(Cl)cc(Cl)c2)cc1 [Compound 25, (2E,4E)-1-(3,5-dichlorophenyl)-5-(4-(dimethylamino)phenyl)penta-2,4-dien-1-one] | 15.56 | 82.15 | 1.543-24.82 | −18.97-−3.487 |  |  |  | no statistically significant change | 52 | no cytotoxicity |  |
| 1.5 | CSc1ccc(C(=O)/C=C/C=C/c2ccc(N(C)C)cc2)cc1 [Compound 18, (2E,4E)-5-(4-(dimethylamino)phenyl)-1-(4-(methylthio)phenyl)penta-2,4-dien-1-one] |  |  |  |  |  |  |  |  |  |  |  |

— patent publication US20250250218A1, “Anti-Amyloidogenic Curcumin Analogues” (MCPHS University, priority 2024, published 2025)
